Test [1] has as its target T1, IDO1 (Homo sapiens, UniProt P14902). The test can be described thus: Hela cell-based IDO1 assay. Particulars: Hela cells. In a few lines: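 HeLa cells were seeded at 8000 per well in 96-well plates in phenol red-free DMEM with 10% FBS. After 4 hours, DMSO-diluted compound dilutions were added with IFN-γ (final 100 ng/mL) and 0.4 mM L-Trp, and cells were kept 48 hours at 37 °C, 5% CO2. Supernatant was deproteinised with trichloroacetic acid, and kynurenine was measured at 480 nm after adding 2% 4-(dimethylamino)benzaldehyde. Potency came from four-parameter logistic fits in XLfit.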

Test [2] deals with T2, cellular TDO2 in HEK293-TDO2 cells (Homo sapiens, UniProt P48775).
T2 construct: expressed in transfected cells; host or cells: HEK293 (ATCC), stably transfected
Nature of the test: 293-TDO2 cell-based assay (Kyn colorimetric). The settings on record: 48 hours of incubation. In a few lines:
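Kyn formed from L-Trp was read colorimetrically at 480 nm (TCA deproteinisation, then 2% 4-(dimethylamino)benzaldehyde). Compounds were added to 293-TDO2 cells 4 h post-seeding and left 48 h at 37° C. A four-parameter logistic model gave IC50 values.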

Test [3] concerns the target T1, IDO1. The test can be described thus: IDO1 enzymatic assay. The class given is biochemical. Also noted: His tag (N); made in house; host or cells: E. coli. Particulars: read-out: Enzyme IC50 IDO1. The procedure, abridged:
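Recombinant N-terminally His-tagged IDO1 purified from E. coli (50 nM) was incubated with compound or DMSO and 1.3 mM D-tryptophan, 5 mM L-ascorbic acid, methylene blue and 0.4 mg/mL catalase. The buffer was 50 mM potassium phosphate pH 7.5 with 0.1% BSA, at 24 °C for 1.5 hours. N'-formylkynurenine formation was then read continuously at 321 nm for 1 hour, and activity was taken as the slope. IC50 was calculated from remaining enzyme activity across increasing compound concentrations.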

pEC50, pIC50: −log10 of the molar value.

T1 sequence (P14902 whole entry): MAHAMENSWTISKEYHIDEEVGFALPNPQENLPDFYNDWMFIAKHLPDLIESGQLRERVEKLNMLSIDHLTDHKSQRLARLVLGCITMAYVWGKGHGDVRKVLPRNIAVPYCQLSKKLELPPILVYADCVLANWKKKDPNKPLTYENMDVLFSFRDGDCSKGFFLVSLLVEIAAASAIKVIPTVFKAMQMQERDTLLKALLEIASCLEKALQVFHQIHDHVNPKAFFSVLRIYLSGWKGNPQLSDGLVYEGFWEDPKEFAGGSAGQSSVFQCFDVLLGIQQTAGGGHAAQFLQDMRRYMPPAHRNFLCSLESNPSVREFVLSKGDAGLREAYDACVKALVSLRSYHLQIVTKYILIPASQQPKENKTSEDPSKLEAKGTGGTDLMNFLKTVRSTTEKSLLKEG
T2 sequence (P48775 whole entry): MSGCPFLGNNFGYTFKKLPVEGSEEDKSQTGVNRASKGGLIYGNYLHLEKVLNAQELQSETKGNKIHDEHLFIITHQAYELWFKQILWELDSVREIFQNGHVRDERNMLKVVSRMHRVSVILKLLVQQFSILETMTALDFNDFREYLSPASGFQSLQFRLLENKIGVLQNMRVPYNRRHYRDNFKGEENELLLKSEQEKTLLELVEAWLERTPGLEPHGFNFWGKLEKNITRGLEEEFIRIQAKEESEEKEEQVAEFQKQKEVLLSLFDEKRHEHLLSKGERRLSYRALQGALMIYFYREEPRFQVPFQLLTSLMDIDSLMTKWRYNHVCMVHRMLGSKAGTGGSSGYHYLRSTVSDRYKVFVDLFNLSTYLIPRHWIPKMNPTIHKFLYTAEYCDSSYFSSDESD

As usually defined, the pEC50 is the negative decadic logarithm of the EC50, by convention in mol/L. Low readings indicate a large EC50, high ones a small EC50. As a reminder, the pIC50 is the IC50 on a negative log10 scale, so that one unit is a factor of ten. In the case of `COc1ccc(C2CCC(C(O)c3c(C4CC4)ccc4cncn34)CC2)c(Cl)c1` (stereo not drawn) [Example D147, (4-(2-chloro-4-methoxyphenyl)cyclohexyl)(6-cyclopropylimidazo[1,5-a]pyridin-5-yl)methanol], the figures for the pEC50 (on IDO1 [1]; in test [2]) were 6.35 and below 5.00, respectively. The pIC50 at IDO1 [3] was 7.37.
In the same order, the values of `OC(c1c(C2CC2)ccn2cncc12)C1CCC(c2ccc(F)c(Cl)c2)CC1` (stereo not drawn) [Example C132, (4-(3-chloro-4-fluorophenyl)cyclohexyl)(7-cyclopropylimidazo[1,5-a]pyridin-8-yl)methanol] are 6.42, below 5.00 and 6.92.
The matching figures for `Cc1cccc([C@H]2CC[C@H]([C@@H](O)c3c(C4CC4)ccn4cncc34)CC2)c1` (single isomer, unassigned) [Example C111b]: below 5.00, below 5.00 and below 5.00.
The matching figures for `COc1ccc([C@H]2CC[C@H]([C@H](O)c3c(C4CC4)ccc4cncn34)CC2)c(Cl)c1` (single isomer, unassigned) [Example D147a]: 6.70, below 5.00 and 7.70.
`OC(c1c(C2CC2)ccc2cncn12)C1CCC(c2ccc(F)c3ncccc23)CC1` (stereo not drawn) [Example D163, (6-cyclopropylimidazo[1,5-a]pyridin-5-yl)(4-(8-fluoroquinolin-5-yl)cyclohexyl)methanol]: the pEC50 on IDO1 [1] is 7.32; in test [2], below 5.00. In addition, the pIC50 on IDO1 [3] is 7.40.
The matching figures for `O[C@@H](c1c(C2CC2)ccn2cncc12)[C@H]1CC[C@H](c2ccc(Cl)cc2)CC1` (single isomer, unassigned) [Example C102b]: below 5.00, below 5.00 and below 5.00.
The matching figures for `OC(c1c(C2CC2)ccn2cncc12)C1CCN(c2ccc(F)c3cccnc23)CC1` (single isomer, unassigned) [Example C155a]: below 5.00, below 5.00 and 5.12.
In the same order, the values of `Nc1ccc([C@H]2CC[C@H]([C@H](O)c3c(C4CC4)ccc4cncn34)CC2)cc1` (single isomer, unassigned) [Example D122a] are 6.99, below 5.00 and 7.74.
Take `COc1ccccc1[C@H]1CC[C@H]([C@@H](O)c2c(C3CC3)ccn3cncc23)CC1` (single isomer, unassigned) [Example C113b]: the pEC50 (at IDO1 [1]; in test [2]) was below 5.00 in each case. Also, on IDO1 [3], the pIC50 is 5.09.
`OC(c1c(C2CC2)ccc2cncn12)C1CCC(c2ccc(OC3CCOCC3)cc2)CC1` (stereo not drawn) [Example D114, (6-cyclopropylimidazo[1,5-a]pyridin-5-yl)(4-(4-((tetrahydro-2H-pyran-4-yl)oxy)phenyl)cyclohexyl)methanol]: the figures for the negative logarithm of the EC50 (pEC50) (on IDO1 [1]; in test [2]) were 6.81 and below 5.00, respectively. In addition, the negative logarithm of the IC50 (pIC50) on IDO1 [3] was 7.49.
In the same order, the values of `O[C@@H](c1c(C2CC2)ccc2cncn12)[C@H]1CC[C@H](c2ccc(F)c(F)c2)CC1` (single isomer, unassigned) [Example D126b] are 5.19, below 5.00 and below 5.00.
In the same order, the values of `OCC(CCl)Oc1ccc(C2CCC(C(O)c3c(C4CC4)ccc4cncn34)CC2)cc1` (stereo not drawn) [Example D108, 3-chloro-2-(4-(4-((6-cyclopropylimidazo[1,5-a]pyridin-5-yl) (hydroxy)methyl)cyclohexyl)phenoxy)propan-1-ol] are 7.14, below 5.00 and 7.52.
In the same order, the values of `OC(c1c(C2CC2)ccn2cncc12)C1CCN(c2cccc(Cl)c2)CC1` (stereo not drawn) [Example C140, (1-(3-chlorophenyl)piperidin-4-yl)(7-cyclopropylimidazo[1,5-a]pyridin-8-yl)methanol] are 6.52, below 5.00 and 6.85.
As to `O=Cc1ccc(C2CCC(C(O)c3c(C4CC4)ccc4cncn34)CC2)cc1` (stereo not drawn) [Example D123, 4-(4-((6-cyclopropylimidazo[1,5-a]pyridin-5-yl)(hydroxy)methyl)cyclohexyl)benzaldehyde], the values for the pEC50 (on IDO1 [1]; in test [2]) were 6.34 and below 5.00, respectively. Further, the pIC50 on IDO1 [3] is 7.27.
In the same order, the values of `OC(c1c(C2CC2)ccc2cncn12)C1CCC(c2ccccc2)CC1` (stereo not drawn) [Example D101, (6-cyclopropylimidazo[1,5-a]pyridin-5-yl)(4-phenylcyclohexyl)methanol] are 7.00, below 5.00 and 7.57.
For the molecule `OC(c1cc(Cl)cc2cncn12)C1CCC(c2ccc3ccccc3c2)CC1` (stereo not drawn) [Example E104, (7-chloroimidazo[1,5-a]pyridin-5-yl)(4-(naphthalen-2-yl)cyclohexyl)methanol], the negative logarithm of the EC50 (pEC50) at IDO1 [1] was 5.26; in test [2], below 5.00. In addition, at IDO1 [3], the negative-log IC50 (pIC50) is 7.10.
As for `COc1ccc(C2CCC(C(O)c3c(C4CC4)ccc4cncn34)CC2)cc1` (stereo not drawn) [Example D102, (6-cyclopropylimidazo[1,5-a]pyridin-5-yl)(4-(4-methoxyphenyl)cyclohexyl)methanol], the values for the negative-log EC50 (pEC50) (on IDO1 [1]; in test [2]) were 7.13 and below 5.00, respectively. Moreover, the pIC50 on IDO1 [3] is 7.64.
The matching figures for `OC(c1c(C2CC2)ccc2cncn12)C1CCC(c2ccc(Cl)c(F)c2)CC1` (stereo not drawn) [Example D128, (4-(4-chloro-3-fluorophenyl)cyclohexyl)(6-cyclopropylimidazo[1,5-a]pyridin-5-yl)methanol]: 6.59, below 5.00 and 7.39.
The matching figures for `O[C@@H](c1c(C2CC2)ccn2cncc12)[C@H]1CC[C@H](c2ccc(OC3CCCC3)cc2)CC1` (single isomer, unassigned) [Example C118b]: below 5.00, below 5.00 and 5.52.
In the same order, the values of `NC(=O)c1ccc([C@H]2CC[C@H]([C@H](O)c3c(C4CC4)ccn4cncc34)CC2)cc1` [Example C124] are 6.63, below 5.00 and 7.25.
For the molecule `OC(c1c(C2CC2)ccc2cncn12)[C@H]1CC[C@H](c2ccc(OC3CCOCC3)cc2)CC1` (single isomer, unassigned) [Example D114b], the results for the negative logarithm of the EC50 (pEC50) (at IDO1 [1]; in test [2]) were 5.40 and below 5.00, respectively. Also, the negative-log IC50 (pIC50) at IDO1 [3] was 5.59.
Take `OC(c1c(C2CC2)ccn2cncc12)C1CCN(c2ccc(Cl)c3ncccc23)CC1` (single isomer, unassigned) [Example C154b]: the negative-log EC50 (pEC50) at IDO1 [1] was 5.19; in test [2], below 5.00. Further, the pIC50 on IDO1 [3] is 5.54.
Regarding `O[C@@H](c1c(C2CC2)ccc2cncn12)[C@H]1CC[C@H](c2ccnc3ccccc32)CC1` (single isomer, unassigned) [Example D140b], the pEC50 is 5.76 on IDO1 [1] and below 5.00 in test [2]. Besides, the pIC50 at IDO1 [3] is 5.74.
In the same order, the values of `CC(C)c1ccc2cncn2c1C(O)C1CCC(c2cccc(F)c2)CC1` (stereo not drawn) [Example D167, (4-(3-fluorophenyl)cyclohexyl)(6-isopropylimidazo[1,5-a]pyridin-5-yl)methanol] are 7.40, below 5.00 and 7.16.
In the same order, the values of `N#Cc1ccc(N2CCC(C(O)c3c(C4CC4)ccn4cncc34)CC2)cc1` (stereo not drawn) [Example C144, 4-(4-((7-cyclopropylimidazo[1,5-a]pyridin-8-yl)(hydroxy)methyl)piperidin-1-yl)benzonitrile] are 6.13, below 5.00 and 7.40.
Take `OC(c1c(C2CC2)ccn2cncc12)C1CCC(c2ccccc2C(F)(F)F)CC1` (stereo not drawn) [Example C116]: the pEC50 on IDO1 [1] was 5.96; in test [2], below 5.00. Also, the pIC50 at IDO1 [3] was 6.80.
Turning to `COc1ccc([C@H]2CC[C@H](C(O)c3c(C4CC4)ccc4cncn34)CC2)c2ccccc12` (single isomer, unassigned) [Example D139b], the negative-log EC50 (pEC50) was 5.35 at IDO1 [1] and below 5.00 in test [2]. On IDO1 [3], the pIC50 was below 5.00.
With `Oc1ccc(N2CCC(C(O)c3c(C4CC4)ccn4cncc34)CC2)cc1` (stereo not drawn) [Example C143], the pEC50 is 5.96 on IDO1 [1] and below 5.00 in test [2]. Also, on IDO1 [3], the negative logarithm of the IC50 (pIC50) is 6.89.
The matching figures for `CNC(=O)c1ccc([C@H]2CC[C@H]([C@@H](O)c3c(C4CC4)ccc4cncn34)CC2)cc1` (single isomer, unassigned) [Example D124b]: 5.28, below 5.00 and 6.01.
The matching figures for `OC(c1c(C2CC2)ccc2cncn12)C1CCC(c2cc(F)c(F)cc2F)CC1` (stereo not drawn) [Example D149, (6-cyclopropylimidazo[1,5-a]pyridin-5-yl)(4-(2,4,5-trifluorophenyl)cyclohexyl)methanol]: 6.31, below 5.00 and 7.59.

The values are drawn from patent publication US10882856B2 (BeiGene, Ltd., priority 2017, dated 2021).
